Key:
TrkA [1] = target: T1, TrkA (Homo sapiens, UniProt P04629); test: 125I-NGF equilibrium binding, PC12 cells stably overexpressing TrkA; design: expressed in transfected cells; conditions: for Displacement of 125I-NGF binding: PC12 cells overexpressing TrkA, adenosine 1 mM, CGS 21680 1 μM; for Specific Binding of 125I-NGF: 30 minutes at 25° C., control 14316 +/− 350
Protocol: (§1) ^125I-NGF Binding Analysis. For equilibrium binding studies, ^125I-NGF was prepared as described previously (Hempstead et al, 1989). PC12 cells stably overexpressing TrkA (2×10^5 cells) and HEK 293 cells expressing TrkA (2×10^5) were incubated with ^125I-NGF in the absence and presence of adenosine compounds for 30 minutes at 25° C. The cells were then washed twice with PBS, and ^125I-NGF stripped with an acid solution (0.2 M acetic acid, 0.5 M NaCl). Nonspecific binding was assessed by adding unlabeled NGF at a final concentration of 1000 ng/ml and represented less than 20% of total binding. Specific binding was defined as total binding minus nonspecific binding. All conditions were carried out in triplicate and SEM calculated.
Target sequence in this assay (P04629 33-796): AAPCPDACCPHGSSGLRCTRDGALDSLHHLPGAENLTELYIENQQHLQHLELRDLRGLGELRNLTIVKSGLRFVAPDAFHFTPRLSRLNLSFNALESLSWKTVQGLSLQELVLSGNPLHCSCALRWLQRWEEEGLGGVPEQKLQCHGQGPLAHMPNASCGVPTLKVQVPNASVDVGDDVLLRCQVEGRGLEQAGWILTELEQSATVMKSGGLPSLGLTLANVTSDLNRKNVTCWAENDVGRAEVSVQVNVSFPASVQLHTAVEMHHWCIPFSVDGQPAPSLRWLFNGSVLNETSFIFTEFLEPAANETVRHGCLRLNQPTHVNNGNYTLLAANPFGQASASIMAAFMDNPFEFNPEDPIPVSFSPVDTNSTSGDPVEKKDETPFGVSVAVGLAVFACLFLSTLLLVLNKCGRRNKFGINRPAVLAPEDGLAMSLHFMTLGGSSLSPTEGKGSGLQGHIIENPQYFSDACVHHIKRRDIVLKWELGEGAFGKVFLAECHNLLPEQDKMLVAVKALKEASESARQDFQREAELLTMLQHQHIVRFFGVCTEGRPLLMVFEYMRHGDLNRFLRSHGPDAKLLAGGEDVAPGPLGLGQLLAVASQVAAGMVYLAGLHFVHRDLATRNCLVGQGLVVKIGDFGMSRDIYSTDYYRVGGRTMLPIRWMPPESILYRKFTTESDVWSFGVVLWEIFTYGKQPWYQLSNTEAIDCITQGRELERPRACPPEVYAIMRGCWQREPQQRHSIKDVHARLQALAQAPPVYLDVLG

TrkA [2] = target: T1, TrkA; test: 125I-NGF equilibrium binding, HEK 293 cells expressing TrkA; design: expressed in transfected cells; host or cells: HEK 293 cells; conditions: for Specific Binding of 125I-NGF: 293/TrkA, 1 μM, 30 minutes at 25° C., control 39076 +/− 2885; for Displacement of 125I-NGF binding: 293 cells that expressed TrkA, excess concentrations
Protocol: as §1
Target sequence in this assay (P04629 33-796, species assumed): as the sequence (P04629 33-796) above

[3] = tested on: NGF-differentiated PC12 cells; test: Cell death assay (LDH release), NGF-differentiated PC12 cells after NGF and serum withdrawal; format: cell-based; conditions: one-time treatment, 48 hours in the absence of NGF, LDH release
Protocol: (§2) FIGS. 6A and 6B show graphs on the trophic effects of adenosine in PC12 and hippocampal cells deprived of neurotrophins. In FIG. 6A, NGF-differentiated PC12 cells were prepared and then NGF and serum were withdrawn for 48 hours as described in the Materials and Methods section of Example 1. Upon NGF withdrawal, various concentrations of CGS 21680 (CGS) were added to the media. CON =No Addition. […] In FIG. 6B, hippocampal neurons were prepared and B27 was withdrawn for 48 hrs as described in the Materials and Methods section of Example 1. Upon B27 withdrawal, various concentrations of CGS 21680 (CGS) were added to the media. […] All LDH levels were quantitated and % cell death calculated as described in the Materials and Methods section of Example 1. All bars depict mean+SEM from three independent experiments.
Cell Death Assay. PC12 cells were differentiated in Dulbecco's modified Eagle's medium (DMEM), supplemented with 0.33% fetal bovine serum, 0.67% heat-inactivated horse serum, 2 mM L-glutamine and NGF (50 ng/ml) for 7 days. Serum and NGF were then removed, and adenosine agonists or growth factors added to the media. After 48 hrs, cell death was quantified by measuring lactate dehydrogenase (LDH) released from injured cells into the media using the Cytox 96 Cytotoxicity Assay Kit (Promega, Madison, Wis.). LDH values were normalized by subtracting the LDH released by cells maintained in NGF (50 ng/ml) and scaling to a full kill (=100%) reference induced by 5 min treatment with 1% Triton, an exposure that consistently killed all PC12 cells.

hippocampal neurons = test: Cell death assay (LDH release), hippocampal neurons after B27 withdrawal; format: cell-based, rat
Protocol: as §2, with “.” for “FIGS. 6A and 6B show graphs on the trophic effects of adenosine in PC12 and hippocampal cells deprived of neurotrophins.”
Hippocampal Cell Cultures. Dissociated primary cultures of hippocampal neurons from embryonic day 17 (E17) rats were prepared from timed-pregnant Sprague-Dawley rats as described previously (Aibel et al, 1998). Fetuses were removed under sterile conditions and kept in PBS on ice for microscopic dissection of the hippocampus. The meninges were removed and the tissue was placed in Neurobasal media (Gibco BRL). The tissue was briefly minced with fine forceps and then triturated with a fire polished pasteur pipet. Cells were counted and then plated on culture wells coated with 0.01 mg/ml poly-D-lysine overnight. Hippocampal cells were maintained in Neurobasal media, containing B27 supplement and L-glutamine (0.5 mM). Experiments were conducted 7–10 days after plating.
Hippocampal neurons were maintained in Neurobasal media containing B27 supplement and 0.5 mM L-glutamine for 10 days. B27 was then removed, and adenosine agonists or BDNF (100 ng/ml) was added to the media. MK-801 (1 μM) was added to all conditions, to decrease the contribution of NMDA-mediated cell death. After 48 hrs, cell death was assessed by measurement of LDH released into media.

MAP kinase = MAP kinase activation in PC12 cells (anti-phospho MAP kinase immunoblot); format: cell-based; conditions: PC12 cells, adenosine 10 μM, within 10 minutes
Protocol: PC12 cells (615) were treated with adenosine (10 μM) for various times in the presence or absence of […] (100 nM) or LY294002 (10 μM). The cells were subsequently harvested in lysis buffer; lysates and immunoprecipitated samples were subsequently immunoblotted with anti-phospho MAP kinase, anti-phospho Akt, and anti-phosphotyrosine. Reprobing with anti-MAP kinase and anti-pan-Trk antibodies was carried out to ensure equal protein loading. Immunoprotection and Immunoblotting. PC12 cells or PC12-615 cells (Hempstead et al, 1992), were maintained in Dulbecco's Modified Eagle's Medium (DMEM) containing 10% fetal bovine serum (FBS) supplemented with 100 units/ml penicillin, 100 μg/ml streptomycin, and 2 mM glutamine plus 200 μg/ml G418. Cells were placed in low serum medium (1% FBS, 0.5% horse serum) overnight prior to experiments. Cell lysates from PC12, 615 cells, or hippocampal cells were incubated in lysis buffer (1% NP40) for 4 hours to overnight at 4° C. with anti-pan-Trk polyclonal antibody, followed by incubation with protein A-Sepharose beads. Equivalent amounts of protein were analyzed for each condition. […] The immunoreactive protein bands were detected by ECL reagents based upon enhanced chemiluminescence procedure (Amersham Pharmacia).

Row | Structure (SMILES) | Displacement of 125I-NGF binding (TrkA [1]) | Specific Binding of 125I-NGF (TrkA [1]; Pc12, 1 μM) | Specific Binding of 125I-NGF (TrkA [2]) | Displacement of 125I-NGF binding (TrkA [2]) | Cells rescued [3] [%] | Cells rescued (hippocampal neurons; 48 hrs after B27 withdrawal, absence of BDNF, LDH release) | Dose dependence of survival action (hippocampal neurons; various concentrations upon B27 withdrawal) | Specific Binding of 125I-NGF (TrkA [1]; Pc12, 1 mM) | Phosphorylated MAP kinase (MAP kinase)
1 | CCNC(=O)[C@H]1O[C@@H](n2cnc3c(N)nc(NCCc4ccc(CCC(=O)O)cc4)nc32)[C@H](O)[C@@H]1O [CGS 21680, 2-[(4-(2-carboxyethyl)phenylethyl)]aminoadenosine-5′-N-ethylcarboxamide] | no displacement | 14237 +/− 1055 | 39568 +/− 2032 | did not displace | ~50 | greater than 60% | dose-dependent | – | –
2 | Nc1ncnc2c1ncn2[C@@H]1O[C@H](CO)[C@@H](O)[C@H]1O [adenosine] | no displacement | – | 36618 +/− 4185 | did not displace | – | – | – | 14403 +/− 888 | marked increased in phosphorylated MAP kinase
